Series [1] relates to HCV replicon cells (2209-23), genotype 1b replicon. Put plainly: HCV replicon assay (Renilla luciferase reporter). The class given is cell-based, HCV genotype 1b. The note with it: Hepatitis C virus, 72 h; 2209-23 cells, three days incubation.
Series [2] deals with T1, HCV polymerase (NS5B570n-Con1) (Hepatitis C virus genotype 1b, UniProt Q9WMX2).
T1 construct: a 21 amino acid C-terminal deletion of full-length HCV polymerase; made in house; host or cells: E. coli BL21(DE3) pLysS, plasmid pET17b
Put plainly: HCV NS5B RNA polymerase activity. It counts as biochemical, HCV Con1 strain. The method, then:
The enzymatic activity of HCV polymerase (NS5B570n-Con1) was measured as the incorporation of radiolabeled nucleotide monophosphates into acid insoluble RNA products. Unincorporated radiolabeled substrate was removed by filtration and scintillant was added to the washed and dried filter plate containing radiolabeled RNA product. The amount of RNA product generated by NS5B570n-Con1 at the end of the reaction was directly proportional to the amount of light emitted by the scintillant.
The HCV polymerase used in the enzymatic activity assay is a 21 amino acid C-terminal deletion of full-length HCV polymerase derived from HCV Con1 strain, genotype 1b (GenBank accession number AJ242654) (NS5B570n-Con1). The NS5B570n-Con1 was sub-cloned downstream to the T7 promoter of the plasmid expression construct pET17b and transformed into E. coli strain BL21(DE3) pLysS for protein expression. A single colony was used to start an innoculum for a 10 L culture in LB media supplemented with 100 μg/mL ampicillin at 37° C. Protein expression was induced by the addition of 0.25 mM isopropyl-β-D-thiogalactopyranoside (IPTG) when the optical density of the culture at […] was 0.8. Induction of protein expression was carried out at 30° C. for 16 h after which the cells were harvested by centrifugation. NS5B570n-Con1 was purified to homogeneity using a three-column purification protocol including subsequent column chromatography on Ni-NTA, SP-Sepharose HP and Superdex 75 resins.
[…] TRK-412; specific activity: 30 to 60 Ci/mmol;), 1 μM each ATP, CTP, and GTP, 40 mM Tris-HCl pH 8.0, 40 mM NaCl, 4 mM DTT (dithiothreitol), 4 mM MgCl2, 5 μl of compound serial diluted in DMSO, and nuclease-free water to a final reaction volume of 50 μl. Enzymatic reactions in the presence of poly A RNA template (see section 0004) contained 20 nM Poly A:oligo(rU)16 premixed (see section 0004), 20 nM NS5B570n-Con1 enzyme, 1 μCi of tritiated UTP (Perkin Elmer catalog no. TRK-412; specific activity: 30 to 60 Ci/mmol), 40 mM Tris-HCl pH 8.0, 40 mM NaCl, 4 mM DTT (dithiothreitol), 4 mM MgCl2, 5 μl of compound serial diluted in DMSO, and nuclease-free water to a final reaction volume of 50 μl. Reaction mixtures were assembled in 96-well filter plates (cat #MADVN0B, Millipore Co.) and incubated for 2 h at 30° C. Reactions were stopped by addition of 10% final (v/v) trichloroacetic acid and incubated for 40 min at 4° C. Reactions were filtered, washed with 8 reaction volumes of 10% (v/v) trichloroacetic acetic acid, 4 reaction volumes of 70% (v/v) ethanol, air dried, and 25 μl of scintillant (Microscint 20, Perkin-Elmer) was added to each reaction well.
Two RNA templates were used to assay compounds described herein. The cIRES RNA template was 377 nucleotide long and consisted of a partial complementary sequence (36 nucleotides) of the core protein, followed by 341 nucleotide of the complementary sequence of the internal ribosome entry site. The poly A RNA template (GE Amersham catalog number 27-4110) was a homopolymeric RNA pre-annealed to a oligo(rU)16 primer at a molar ratio of 3-to-1 (primer-template).
The amount of light emitted from the scintillant was converted to counts per minute (CPM) on a Topcount® plate reader (Perkin-Elmer, Energy Range: Low, Efficiency Mode: Normal, Count Time: 1 min, Background Subtract: none, Cross talk reduction: Off).
Data was analyzed in Excel® (Microsoft) and ActivityBase® (Idbs®). The reaction in the absence of enzyme was used to determine the background signal, which was subtracted from the enzymatic reactions. […] All data was expressed as a percentage of the positive control. The compound concentration at which the enzyme-catalyzed rate of RNA synthesis was reduced by 50%

Series [3] can be described thus: in vitro. The note with it: human.
[4] abbreviates: NS5B pol inhibition IC50, as in Example 32 (20 nM RNA template).
Setting [5] is: NS5B pol inhibition IC50, cell values marked ^2, as in Example 32 except RNA template concentration 3 nM (footnote 3).

`COc1c(/C=C/c2ccc(NS(C)(=O)=O)cc2)cc(-c2ccn[nH]c2=O)cc1C(C)(C)C` [Compound I-13, N-(4-{(E)-2-[3-tert-Butyl-2-methoxy-5-(3-oxo-2,3-dihydro-pyridazin-4-yl)-phenyl]-vinyl}-phenyl)-methanesulfonamide]: the IC50 (usually the concentration needed to halve the response being measured) in series [1] was determined as 1 nM; in series [2] (setting [4]), 4 nM.
Consider `COc1c(CCc2ccc(NS(C)(=O)=O)cc2)cc(-c2ncc[nH]c2=O)cc1C(C)(C)C` [Compound I-1, N-(4-{2-[3-tert-Butyl-2-methoxy-5-(3-oxo-3,4-dihydro-pyrazin-2-yl)-phenyl]-ethyl}-phenyl)-methanesulfonamide], for which the melting point (usually the temperature of the solid-liquid transition) was 238 to 240 °C. Further, the CC50 in series [3] is 24200 nM. Inhibition in series [1] was half-maximal at 112 nM (IC50). The molecule also came in with an IC50 in series [2] (setting [4]) of 15 nM.
Regarding `COc1c(NC(=O)c2ccc(NS(C)(=O)=O)cc2)cc(-c2ncc[nH]c2=O)cc1C(C)(C)C` [Compound I-4, N-[3-tert-Butyl-2-methoxy-5-(3-oxo-3,4-dihydro-pyrazin-2-yl)-phenyl]-4-methanesulfonylamino-benzamide], the IC50 in series [1] is 347 nM; in series [2] (setting [4]), 6 nM.
Molecule `CC1(C)COc2c(-c3ccn[nH]c3=O)cc(/C=C/c3ccc(NS(C)(=O)=O)cc3)cc21` [Compound I-21, N-(4-{(E)-2-[3,3-Dimethyl-7-(3-oxo-2,3-dihydro-pyridazin-4-yl)-2,3-dihydro-benzofuran-5-yl]-vinyl}-phenyl)-methanesulfonamide] gave a melting point of 255 to 257 °C. Besides, inhibition in series [1] was half-maximal at 113 nM (IC50). The molecule further gave a concentration for half-maximal inhibition (IC50) in series [2] (setting [5]) of 2 nM.
Take `COc1c(/C=C/c2ccc(NS(C)(=O)=O)cc2)cc(-c2c[nH]c(=O)[nH]c2=O)cc1OC(F)(F)F` [Compound I-42, N-(4-{(E)-2-[5-(2,4-Dioxo-1,2,3,4-tetrahydro-pyrimidin-5-yl)-2-methoxy-3-trifluoromethoxy-phenyl]-vinyl}-phenyl)-methanesulfonamide]: the melting point lay in the range of 202 to 205 °C. The molecule also displayed an IC50 in series [2] (setting [4]) of 6.7 nM.
Take `COc1c(/C=C/c2ccc(NS(C)(=O)=O)cc2)cc(-c2cnc(Cl)[nH]c2=O)cc1C(C)(C)C` [Compound I-32, N-(4-{(E)-2-[3-tert-Butyl-5-(2-chloro-6-oxo-1,6-dihydro-pyrimidin-5-yl)-2-methoxy-phenyl]-vinyl}-phenyl)-methanesulfonamide]: the melting point was > 300 °C. For the same molecule, 5 nM corresponded to half-maximal inhibition in series [2] (setting [4]) (IC50).
The molecule `COC(=O)c1cc(NS(C)(=O)=O)ccc1/C=C/c1cc(-c2cnc(OCc3ccccc3)[nH]c2=O)cc(C(C)(C)C)c1OC` [Compound I-24] yielded a CC50 in series [3] of 4700 nM. In addition, the IC50 is 40 nM in series [1] and 11 nM in series [2] (setting [5]).
In turn, `COc1c(CCc2ccc(NS(C)(=O)=O)cc2)cc(-c2ncc[nH]c2=O)c(F)c1C(C)(C)C` [Compound I-3, N-(4-{2-[3-tert-Butyl-4-fluoro-2-methoxy-5-(3-oxo-3,4-dihydro-pyrazin-2-yl)-phenyl]-ethyl}-phenyl)-methanesulfonamide] gave a melting point of 130 to 132 °C. Moreover, the IC50 in series [2] (setting [4]) was 41 nM.
Take `COc1c(/C=C/c2ccc(NS(C)(=O)=O)cc2)cc(-c2cnc(N(C)C)[nH]c2=O)cc1C(C)(C)C` [Compound I-33, N-(4-{(E)-2-[3-tert-Butyl-5-(2-dimethylamino-6-oxo-1,6-dihydro-pyrimidin-5-yl)-2-methoxy-phenyl]-vinyl}-phenyl)-methanesulfonamide]: the melting point is > 300 °C. Besides, in series [2] (setting [4]), the IC50 was 2.6 nM.
Take `COc1c(/C=C/c2ccccc2)cc(-c2ccn[nH]c2=O)cc1C(C)(C)C` [Compound I-14]: the melting point was in the range of 100 to 102 °C. Moreover, it took 7 nM to reach half-maximal inhibition in series [2] (setting [4]) (IC50).
Regarding `COc1c(/C=C/c2ccc(NS(C)(=O)=O)cc2)cc(-c2ccn[nH]c2=O)cc1C1CC1` [Compound I-26, N-(4-{(E)-2-[3-Cyclopropyl-2-methoxy-5-(3-oxo-2,3-dihydro-pyridazin-4-yl)-phenyl]-vinyl}-phenyl)-methanesulfonamide], the melting point was in the range of 269 to 271 °C. This molecule returned an IC50 in series [2] (setting [4]) of 2.1 nM.
With `CC1(C)COc2c(-c3ncc[nH]c3=O)cc(/C=C/c3ccc(NS(C)(=O)=O)cc3)cc21` [Compound I-23, N-(4-{(E)-2-[3,3-Dimethyl-7-(3-oxo-3,4-dihydro-pyrazin-2-yl)-2,3-dihydro-benzofuran-5-yl]-vinyl}-phenyl)-methanesulfonamide], the melting point fell in the range of 302 to 304 °C. For the same molecule, the IC50 in series [2] (setting [5]) was 19 nM.
Regarding `COc1c(/C=C/c2ccc(NS(C)(=O)=O)cc2C(=O)O)cc(-c2ccn[nH]c2=O)cc1C(C)(C)C` [Compound I-9, 2-{(E)-2-[3-tert-Butyl-2-methoxy-5-(3-oxo-2,3-dihydro-pyridazin-4-yl)-phenyl]-vinyl}-5-methanesulfonylamino-benzoic acid], the IC50 in series [1] came out at 71 nM; in series [2] (setting [4]), 0.2 nM.
`CC(C)(C)c1cc(/C=C/c2ccc(NS(C)(=O)=O)cc2)cc(-c2ncc[nH]c2=O)c1` [Compound I-10]: the melting point is 283 to 285 °C. For the same molecule, inhibition in series [2] (setting [4]) was half-maximal at 7 nM (IC50).
Molecule `COc1c(CCc2ccc(NC(C)=O)cc2)cc(-c2ncc[nH]c2=O)cc1C(C)(C)C` [Compound I-2, N-(4-{2-[3-tert-Butyl-2-methoxy-5-(3-oxo-3,4-dihydro-pyrazin-2-yl)-phenyl]-ethyl}-phenyl)-acetamide] displayed a melting point of 181 to 185 °C. In series [2] (setting [4]), this molecule gave an IC50 of 710 nM.
`COCc1cc(NS(C)(=O)=O)ccc1/C=C/c1cc(-c2c[nH]c(=O)[nH]c2=O)cc(C(C)(C)C)c1OC` [Compound I-40, N-(4-{(E)-2-[3-tert-Butyl-5-(2,4-dioxo-1,2,3,4-tetrahydro-pyrimidin-5-yl)-2-methoxy-phenyl]-vinyl}-3-methoxymethyl-phenyl)-methanesulfonamide]: the melting point lay within 172 to 175 °C. The molecule also had an IC50 in series [2] (setting [4]) of 2.8 nM.
Take `COc1c(/C=C/c2ccc(NS(C)(=O)=O)cc2)cc(-c2cn(C)c(=O)[nH]c2=O)cc1C(C)(C)C` [Compound I-8, N-(4-{(E)-2-[3-tert-Butyl-2-methoxy-5-(1-methyl-2,4-dioxo-1,2,3,4-tetrahydro-pyrimidin-5-yl)-phenyl]-vinyl}-phenyl)-methanesulfonamide]: the melting point was > 300 °C. For the same molecule, in series [2] (setting [4]), it took 1.3 nM to reach half-maximal inhibition (IC50).
Turning to `COc1c(/C=C/c2ccc(NS(C)(=O)=O)cc2)cc(-c2cnc[nH]c2=O)cc1C(C)(C)C` [Compound I-22, N-(4-{(E)-2-[3-tert-Butyl-2-methoxy-5-(6-oxo-1,6-dihydro-pyrimidin-5-yl)-phenyl]-vinyl}-phenyl)-methanesulfonamide], the CC50 in series [3] was determined as 23200 nM. In addition, the midpoint of inhibition in series [2] (setting [5]), the IC50, lay at 2 nM.
`CC(C)(C)c1cc(/C=C/c2ccc(NS(C)(=O)=O)cc2)c(O)c(-c2ncc[nH]c2=O)c1` [Compound I-6, N-(4-{(E)-2-[5-tert-Butyl-2-hydroxy-3-(3-oxo-3,4-dihydro-pyrazin-2-yl)-phenyl]-vinyl}-phenyl)-methanesulfonamide] had a melting point of 280 to 282 °C. Besides, half-maximal inhibition in series [2] (setting [4]) (IC50) was put at 454 nM.

(Values after patent US8178547B2, “Heterocyclic antiviral compounds” (Roche Palo Alto LLC, priority 2008, dated 2012).)
